Assay results from patent publication US20130005802A1, “TREATMENT OF WNT/FRIZZLED-RELATED DISEASES” (priority 2009, published 2013).

Legend:
Frizzled1-GFP = Frizzled1-GFP (Rattus norvegicus, UniProt Q08463); assay: Co-localization of internalized Frizzled1-GFP with β2-adrenergic receptor-RFP or Transferrin; assay type: cell-based
Protocol: To remove remaining surface bound Tf, the cells were exposed to unlabeled transferrin (10 mg/mL) for 2 min at room temperature. The cells were then fixed with 4% paraformaldehye, and imaged with a LSM510 confocal microscope (Zeiss).
Many classes of membrane receptors internalize in clathrin coated pits. In particular, β2-adrenergic receptors are prototypical for clathrin-dependent internalization of G protein-coupled receptors (Barak, L. S., et al. Mol Pharmacol 1997, 51, 177-184; Goodman, O. B., Jr., et al. Nature 1996, 383, 447-450, both are incorporated herein by reference in their entireties), and Transferrin is a well-documented standard for clathrin-mediated internalization in general (Mellman, I. Annu Rev Cell Dev Biol 1996, 12, 575-625, incorporated herein by reference). It was examined whether internalized Frizzled1-GFP co-localizes with either β2-adrenergic receptor-RFP or Transferrin in intracellular vesicles. FIG. 6A-6C show confocal images of unstimulated U2OS cells expressing both β2-adrenergic receptor-RFP (β2AR-RFP, FIG. 6A) and Frizzled1 receptors (Fzd1-GFP, FIG. 6B) prior to activation.
The merged image is presented in (FIG. 6L), wherein arrowheads indicate co-localized vesicles.

fibroblasts = assay: Flow-based cytotoxicity assay (annexin V), fibroblasts; assay type: cell-based; conditions: 3 days, 0.2-20 μM
Protocol: After 3 days incubation, all cells were harvested with 0.05% trypsin/EDTA and spun down by centrifugation. Cells were labeled with biotin-conjugated Annexin V, and then stained with 7-AAD and Streptavidin-APC. Samples were acquired by FACSCalibur machine (BD Bioscience) and analyzed with CellQuest software. Cells were analyzed for expression of Annexin V as a marker of apoptosis.
Annexin V may be used as a marker for apoptosis and other forms of cell death. […] After 3 days of incubation, all cells were harvested with 0.05% trypsin/EDTA, labeled with biotin-conjugated Annexin V, and then stained with 7-AAD and streptavidin-APC. Samples were acquired by FACSCalibur, and percentages of annexin V-positive cells were analyzed and plotted as shown in FIG. 11. Cells were analyzed for expression of Annexin V as a marker of apoptosis.

CRC039 tumors = assay: In vivo anti-tumor effect, CRC039 explant tumors; design: species or system NOD/SCID mice; conditions: 10, 100 or 200 mg/kg gavage, 6 days per week, 3 weeks
Protocol: HCT116 colon cancer cells were harvested from flasks with 0.05% Trypsin/EDTA, washed with PBS, and resuspended with Hanks buffered solution at 5×10^6 cells/100 μL concentration. CRC explants (CRC039) cultured in vitro were harvested with the same procedure, and mixed with equal volume of Matrigel to make 1×10^6 cells/100 μL concentration. A hundred μL of cell suspension was inoculated to the flank of NOD/SCID mice 4 days before the start of treatment. […] Tumor size was measured 3 times a week until mice were sacrificed.
HCT116 colon cancer cells were harvested from flasks with 0.05% Trypsin/EDTA and resuspended with Hanks buffered solution at 5×10^6 cells/100 μL concentration. CRC explants (CRC039) cultured in vitro were harvested with the same procedure and mixed with equal volume of Matrigel to make 1×10^6 cells/100 μL concentration. The cell suspension (100 μL) was inoculated into the flank of NOD/SCID mice 4 days before the start of treatment. […] Initially, 2 weeks of treatment was planned for both HCT116 and CRC039. However, treatment was extended to 3 weeks for CRC039 cells because the […] grew much slower than the HCT116 cell line. Tumor size was measured 3 times a week until mice were euthanized.

Dvl-2 = assay: Immunohistochemistry of Dvl-2 in treated tumors; assay type: in vivo, NOD/SCID mice; conditions: 200 mg/kg, 2 or 3 weeks
Protocol: Paraffin-embedded specimens were cut into 4 μm-thick of sequential sections. After dewaxing in xylene and rehydrating stepwise in ethanol, sections were subjected to heat-induced antigen retrieval. Endogenous peroxidase activity was blocked with 3% H2O2, and non-specific binding was blocked with non-immune horse sera. Sections were then incubated with primary antibodies overnight at 4C. Anti-β-catenin (sc-65483, Santa Cruz Biotechnology, Inc., Santa Cruz, Calif.) and anti-Dvl-2 (sc-8026, Santa Cruz Biotechnology, Inc., Santa Cruz, Calif.) monoclonal antibodies were used at (1:50) dilution. After rinsing the sections were incubated with the biotinylated secondary antibody (1:200 dilution; Dakopatts, Copenhagen, Denmark) for 30 min at room temperature and then with the avidin-biotin peroxidase complex from the Vector Elite ABC kit (Vector Laboratories, Burlingame, Calif.) according to the manufacturer's instructions. Visualization was achieved using 3,3′-diaminobenzidine tetrahydrochloride and H2O2. Specimens were counterstained with hematoxylin.
NOD/SCID mice were implanted with colorectal cancer explants or cell lines. […] Tumors were excised and fixed with 10% neutralized, buffered formalin. Paraffin-embedded specimens were cut into 4 μm-thick of sequential sections. After dewaxing and rehydration, heat-induced antigen retrieval was performed. […]

Frizzled1-GFP, sequence (Q08463 69-641): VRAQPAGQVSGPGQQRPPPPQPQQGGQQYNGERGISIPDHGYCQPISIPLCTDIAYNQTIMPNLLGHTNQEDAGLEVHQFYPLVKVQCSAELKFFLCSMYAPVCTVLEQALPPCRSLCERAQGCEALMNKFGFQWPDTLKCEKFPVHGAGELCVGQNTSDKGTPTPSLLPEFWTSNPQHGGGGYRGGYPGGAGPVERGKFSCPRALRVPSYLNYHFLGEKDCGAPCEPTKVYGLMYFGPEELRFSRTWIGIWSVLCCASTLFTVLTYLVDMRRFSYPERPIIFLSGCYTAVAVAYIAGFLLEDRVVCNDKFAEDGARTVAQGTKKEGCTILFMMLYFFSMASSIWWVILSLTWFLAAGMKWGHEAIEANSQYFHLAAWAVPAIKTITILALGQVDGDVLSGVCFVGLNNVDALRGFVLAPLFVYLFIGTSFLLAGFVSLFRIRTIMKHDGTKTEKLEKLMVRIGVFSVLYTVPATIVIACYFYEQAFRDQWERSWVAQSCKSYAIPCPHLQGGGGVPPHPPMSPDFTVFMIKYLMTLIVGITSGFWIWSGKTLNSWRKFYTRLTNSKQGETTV

O=C(Nc1ccc([N+](=O)[O-])cc1Cl)c1cc(Cl)ccc1O [niclosamide]
co-localization of Fzd1-GFP with β2AR-RFP (Frizzled1-GFP; […] niclosamide and 0.1 μM isoproterenol, 2 hr or 6 hr): multiple overlapping intracellular distributions
co-localization of internalized Transferrin with internalized Frizzled1 (Frizzled1-GFP; […] niclosamide, Transferrin 100 μg/mL, 2 hr): significant co-localization
apoptotic cell death (annexin V) (fibroblasts): did not show a significant increase
tumor growth (CRC039 tumors): significantly inhibited the growth
cytoplasmic expression of Dvl-2 in tumors vs control (Dvl-2): decreased levels
